Measurements: patent publication US8802597B2, “Herbicidal pyrimidines” (E I du Pont de Nemours and Company, priority 2003, dated 2014)

What was measured:
Format in all cases: in vivo
[1] = test system: itchgrass (Rottboellia cochinchinensis); test: Test G pre/postemergence; details: Preemergence
How it was run: (§1)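 Test chemicals in non-phytotoxic solvent with surfactant applied preemergence to sown seeds or nutlets and postemergence to plants 2–18 cm tall (1- to 4-leaf stage). Greenhouse-held 12–21 days, then visually rated against untreated controls on a 0 (no effect) to 100 (complete control) scale.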

[2] = test system: bermudagrass (Cynodon dactylon); test: Test G pre/postemergence; details: Preemergence
How it was run: as §1

[3] = test system: Surinam grass (Brachiaria decumbens); test: Test G pre/postemergence; details: Preemergence
How it was run: as §1

[4] = test system: barnyardgrass (Echinochloa crus-galli); test: Test G pre/postemergence; details: Preemergence
How it was run: as §1

[5] = test system: johnsongrass (Sorghum halepense); test: Test G pre/postemergence; details: Preemergence
How it was run: as §1

[6] = test system: dallisgrass (Paspalum dilatatum); test: Test G pre/postemergence; details: Preemergence
How it was run: as §1

[7] = test system: broadleaf signalgrass (Brachiaria platyphylla); test: Test G pre/postemergence; details: Preemergence
How it was run: as §1

[8] = test system: annual bluegrass (Poa annua); test: Test G pre/postemergence; details: Preemergence
How it was run: as §1

[9] = test system: wild mustard (Sinapis arvensis); test: Test D pre/postemergence; details: scale 0 to 100 (100 = complete control)
Excerpt: (§2) Seeds of plant species selected from catchweed bedstraw (galium; Galium aparine), common chickweed (Stellaria media), kochia (Kochia scoparia), lambsquarters (Chenopodium album), pigweed (Amaranthus retroflexus), Russian thistle (Salsola kali), wild buckwheat (Polygonum convolvulus), wild mustard (Sinapis arvensis), winter barley (Hordeum vulgare), and wheat (Triticum aestivum) were planted and treated preemergence with test chemicals formulated in a non-phytotoxic solvent mixture which included a surfactant.
(§3) At the same time, plants selected from these crop and weed species were treated with postemergence applications of some of the test chemicals formulated in the same manner. Plants ranged in height from 2 to 18 cm (1- to 4-leaf stage) for postemergence treatments. Treated plants and controls were maintained in a controlled growth environment for 15 to 25 days after which time all species were compared to controls and visually evaluated. Plant response ratings, summarized in Table D, are based on a scale of 0 to 100 where 0 is no effect and 100 is complete control. A dash (-) response means no test result.

[10] = test system: catchweed bedstraw (galium; Galium aparine); test: Test D pre/postemergence; details: scale 0 to 100 (100 = complete control)
Excerpt: as §2, §3

[11] = test system: common chickweed (Stellaria media); test: Test D pre/postemergence; details: scale 0 to 100 (100 = complete control)
Excerpt: as §2, §3

[12] = test system: Russian thistle (Salsola kali); test: Test D pre/postemergence; details: scale 0 to 100 (100 = complete control)
Excerpt: as §2, §3

COC(=O)c1nc(C2CC2)nc(N)c1Cl [Compound 9, methyl 6-amino-5-chloro-2-cyclopropyl-4-pyrimidinecarboxylate]
60: Plant response rating, Itchgrass ([1]; 125 g ai/ha, scale 0-100) | Plant response rating, Mustard, Wild ([9]; Preemergence, 16 g ai/ha) | Plant response rating, Chickweed ([11]; Postemergence, 16 g ai/ha)
90: Plant response rating, Surinam Grass ([3]; 500 g ai/ha, scale 0 to 100) | Plant response rating, Russian Thistle ([12]; Postemergence, 31 g ai/ha)
20: Plant response rating, Signalgrass ([7]; 62 g ai/ha, scale 0-100)
95: Plant response rating, Bermudagrass ([2]; 125 g ai/ha, scale 0-100) | Plant response rating, Bermudagrass ([2]; 250 g ai/ha, scale 0-100) | Plant response rating, Barnyardgrass ([4]; 500 g ai/ha, scale 0 to 100) | Plant response rating, Johnsongrass ([5]; 250 g ai/ha, scale 0-100) | Plant response rating, Johnsongrass ([5]; 500 g ai/ha, scale 0 to 100) | Plant response rating, Bluegrass ([8]; 250 g ai/ha, scale 0-100) | Plant response rating, Mustard, Wild ([9]; Postemergence, 125 g ai/ha) | Plant response rating, Chickweed ([11]; Preemergence, 31 g ai/ha)
85: Plant response rating, Itchgrass ([1]; 500 g ai/ha, scale 0 to 100) | Plant response rating, Barnyardgrass ([4]; 250 g ai/ha, scale 0-100) | Plant response rating, Mustard, Wild ([9]; Preemergence, 62 g ai/ha) | Plant response rating, Mustard, Wild ([9]; Preemergence, 125 g ai/ha) | Plant response rating, Galium ([10]; Preemergence, 16 g ai/ha)
40: Plant response rating, Surinam Grass ([3]; 62 g ai/ha, scale 0-100) | Plant response rating, Johnsongrass ([5]; 62 g ai/ha, scale 0-100)
65: Plant response rating, Mustard, Wild ([9]; Postemergence, 16 g ai/ha) | Plant response rating, Chickweed ([11]; Preemergence, 16 g ai/ha) | Plant response rating, Russian Thistle ([12]; Postemergence, 16 g ai/ha)
80: Plant response rating, Itchgrass ([1]; 250 g ai/ha, scale 0-100) | Plant response rating, Surinam Grass ([3]; 250 g ai/ha, scale 0-100) | Plant response rating, Johnsongrass ([5]; 125 g ai/ha, scale 0-100) | Plant response rating, Dallisgrass ([6]; 250 g ai/ha, scale 0-100) | Plant response rating, Signalgrass ([7]; 125 g ai/ha, scale 0-100) | Plant response rating, Signalgrass ([7]; 250 g ai/ha, scale 0-100) | Plant response rating, Mustard, Wild ([9]; Postemergence, 31 g ai/ha) | Plant response rating, Mustard, Wild ([9]; Postemergence, 62 g ai/ha)
10: Plant response rating, Bermudagrass ([2]; 62 g ai/ha, scale 0-100) | Plant response rating, Dallisgrass ([6]; 62 g ai/ha, scale 0-100) | Plant response rating, Bluegrass ([8]; 62 g ai/ha, scale 0-100)
70: Plant response rating, Surinam Grass ([3]; 125 g ai/ha, scale 0-100) | Plant response rating, Barnyardgrass ([4]; 125 g ai/ha, scale 0-100) | Plant response rating, Dallisgrass ([6]; 125 g ai/ha, scale 0-100) | Plant response rating, Mustard, Wild ([9]; Preemergence, 31 g ai/ha)
100: Plant response rating, Bermudagrass ([2]; 500 g ai/ha, scale 0 to 100) | Plant response rating, Dallisgrass ([6]; 500 g ai/ha, scale 0 to 100) | Plant response rating, Signalgrass ([7]; 500 g ai/ha, scale 0 to 100) | Plant response rating, Bluegrass ([8]; 500 g ai/ha, scale 0 to 100) | Plant response rating, Galium ([10]; Postemergence, 16 g ai/ha) | Plant response rating, Galium ([10]; Postemergence, 31 g ai/ha) | Plant response rating, Galium ([10]; Postemergence, 62 g ai/ha) | Plant response rating, Galium ([10]; Postemergence, 125 g ai/ha) | Plant response rating, Galium ([10]; Preemergence, 31 g ai/ha) | Plant response rating, Galium ([10]; Preemergence, 62 g ai/ha) | Plant response rating, Galium ([10]; Preemergence, 125 g ai/ha) | Plant response rating, Chickweed ([11]; Postemergence, 31 g ai/ha) | Plant response rating, Chickweed ([11]; Postemergence, 62 g ai/ha) | Plant response rating, Chickweed ([11]; Postemergence, 125 g ai/ha) | Plant response rating, Chickweed ([11]; Preemergence, 62 g ai/ha) | Plant response rating, Chickweed ([11]; Preemergence, 125 g ai/ha) | Plant response rating, Russian Thistle ([12]; Postemergence, 62 g ai/ha) | Plant response rating, Russian Thistle ([12]; Postemergence, 125 g ai/ha) | Plant response rating, Russian Thistle ([12]; Preemergence, 16 g ai/ha) | Plant response rating, Russian Thistle ([12]; Preemergence, 31 g ai/ha) | Plant response rating, Russian Thistle ([12]; Preemergence, 62 g ai/ha) | Plant response rating, Russian Thistle ([12]; Preemergence, 125 g ai/ha)
30: Plant response rating, Itchgrass ([1]; 62 g ai/ha, scale 0-100) | Plant response rating, Barnyardgrass ([4]; 62 g ai/ha, scale 0-100) | Plant response rating, Bluegrass ([8]; 125 g ai/ha, scale 0-100)

CCOC(=O)c1nc(C2CC2)nc(N)c1Cl [Compound 4, ethyl 6-amino-5-chloro-2-cyclopropyl-4-pyrimidinecarboxylate]
0: Plant response rating, Dallisgrass ([6]; 62 g ai/ha, scale 0-100)
85: Plant response rating, Johnsongrass ([5]; 250 g ai/ha, scale 0-100) | Plant response rating, Mustard, Wild ([9]; Preemergence, 31 g ai/ha) | Plant response rating, Mustard, Wild ([9]; Preemergence, 62 g ai/ha) | Plant response rating, Mustard, Wild ([9]; Preemergence, 125 g ai/ha) | Plant response rating, Chickweed ([11]; Preemergence, 62 g ai/ha)
70: Plant response rating, Itchgrass ([1]; 62 g ai/ha, scale 0-100) | Plant response rating, Itchgrass ([1]; 125 g ai/ha, scale 0-100) | Plant response rating, Barnyardgrass ([4]; 125 g ai/ha, scale 0-100) | Plant response rating, Signalgrass ([7]; 125 g ai/ha, scale 0-100) | Plant response rating, Chickweed ([11]; Preemergence, 31 g ai/ha)
75: Plant response rating, Johnsongrass ([5]; 125 g ai/ha, scale 0-100) | Plant response rating, Mustard, Wild ([9]; Postemergence, 62 g ai/ha)
50: Plant response rating, Barnyardgrass ([4]; 62 g ai/ha, scale 0-100) | Plant response rating, Dallisgrass ([6]; 125 g ai/ha, scale 0-100) | Plant response rating, Signalgrass ([7]; 62 g ai/ha, scale 0-100)
30: Plant response rating, Surinam Grass ([3]; 62 g ai/ha, scale 0-100)
100: Plant response rating, Bermudagrass ([2]; 500 g ai/ha, scale 0 to 100) | Plant response rating, Barnyardgrass ([4]; 500 g ai/ha, scale 0 to 100) | Plant response rating, Dallisgrass ([6]; 500 g ai/ha, scale 0 to 100) | Plant response rating, Bluegrass ([8]; 500 g ai/ha, scale 0 to 100) | Plant response rating, Galium ([10]; Postemergence, 16 g ai/ha) | Plant response rating, Galium ([10]; Postemergence, 31 g ai/ha) | Plant response rating, Galium ([10]; Postemergence, 62 g ai/ha) | Plant response rating, Galium ([10]; Postemergence, 125 g ai/ha) | Plant response rating, Galium ([10]; Preemergence, 31 g ai/ha) | Plant response rating, Galium ([10]; Preemergence, 62 g ai/ha) | Plant response rating, Galium ([10]; Preemergence, 125 g ai/ha) | Plant response rating, Chickweed ([11]; Postemergence, 31 g ai/ha) | Plant response rating, Chickweed ([11]; Postemergence, 62 g ai/ha) | Plant response rating, Chickweed ([11]; Postemergence, 125 g ai/ha) | Plant response rating, Chickweed ([11]; Preemergence, 125 g ai/ha) | Plant response rating, Russian Thistle ([12]; Postemergence, 62 g ai/ha) | Plant response rating, Russian Thistle ([12]; Postemergence, 125 g ai/ha) | Plant response rating, Russian Thistle ([12]; Preemergence, 31 g ai/ha) | Plant response rating, Russian Thistle ([12]; Preemergence, 62 g ai/ha) | Plant response rating, Russian Thistle ([12]; Preemergence, 125 g ai/ha)
60: Plant response rating, Surinam Grass ([3]; 125 g ai/ha, scale 0-100) | Plant response rating, Johnsongrass ([5]; 62 g ai/ha, scale 0-100) | Plant response rating, Bluegrass ([8]; 125 g ai/ha, scale 0-100)
95: Plant response rating, Itchgrass ([1]; 500 g ai/ha, scale 0 to 100) | Plant response rating, Bermudagrass ([2]; 250 g ai/ha, scale 0-100) | Plant response rating, Surinam Grass ([3]; 500 g ai/ha, scale 0 to 100) | Plant response rating, Johnsongrass ([5]; 500 g ai/ha, scale 0 to 100) | Plant response rating, Dallisgrass ([6]; 250 g ai/ha, scale 0-100) | Plant response rating, Signalgrass ([7]; 250 g ai/ha, scale 0-100) | Plant response rating, Signalgrass ([7]; 500 g ai/ha, scale 0 to 100)
10: Plant response rating, Bluegrass ([8]; 62 g ai/ha, scale 0-100)
90: Plant response rating, Bermudagrass ([2]; 125 g ai/ha, scale 0-100) | Plant response rating, Mustard, Wild ([9]; Postemergence, 125 g ai/ha) | Plant response rating, Galium ([10]; Preemergence, 16 g ai/ha) | Plant response rating, Russian Thistle ([12]; Postemergence, 31 g ai/ha) | Plant response rating, Russian Thistle ([12]; Preemergence, 16 g ai/ha)
65: Plant response rating, Mustard, Wild ([9]; Postemergence, 16 g ai/ha) | Plant response rating, Mustard, Wild ([9]; Postemergence, 31 g ai/ha) | Plant response rating, Mustard, Wild ([9]; Preemergence, 16 g ai/ha) | Plant response rating, Chickweed ([11]; Postemergence, 16 g ai/ha) | Plant response rating, Chickweed ([11]; Preemergence, 16 g ai/ha)
20: Plant response rating, Bermudagrass ([2]; 62 g ai/ha, scale 0-100)
80: Plant response rating, Itchgrass ([1]; 250 g ai/ha, scale 0-100) | Plant response rating, Surinam Grass ([3]; 250 g ai/ha, scale 0-100) | Plant response rating, Barnyardgrass ([4]; 250 g ai/ha, scale 0-100) | Plant response rating, Bluegrass ([8]; 250 g ai/ha, scale 0-100) | Plant response rating, Russian Thistle ([12]; Postemergence, 16 g ai/ha)
